Among the data in patent US20060252766A1, “Methods using a combination of 3-heteroaryl-2-indolinone and a cyclooxygenase-2 inhibitor for the treatment of neoplasia” (PFIZER INC, priority 2002, published 2006) are IC50 values, retold here.

Assay [1] addresses T1, FLK-1 receptor (Mus musculus, UniProt P35918).
T1 construct: expressed in transfected cells; host or cells: NIH3T3 C7#3 cells
Put plainly: FLK-1 ELISA in FLK-1/NIH3T3 cells. It counts as cell-based. (In an ELISA, binding on a coated surface is turned into a signal by an enzyme label.)
Method: An ELISA assay was conducted to measure the kinase activity of the FLK-1 receptor and more specifically, the inhibition or activation of protein tyrosine kinase activity on the FLK-1 receptor. Specifically, the following assay was conducted to measure kinase activity of the FLK-1 receptor in FLK-1/NIH3T3 cells.
Coat Corning 96-well elisa plates with 1.0 μg per well Cappel Anti-rabbit IgG antibody in 0.1M Na2 CO3 pH 9.6. Bring final volume to 150 μl per well. Coat plates overnight at 4° C. Plates can be kept up to two weeks when stored at 4° C. • 2. Grow cells in Growth media(DMEM, supplemental with 2.0 mM L-Glutamine, 10% FBS) in suitable culture dishes until confluent at 37° C., 5% CO2. • 3. […] Grow cells at least one day at 37° C., 5% CO2. • 5. Wash cells with D-PBS 1×. • 6. Add 200 μl/well of starvation media (DMEM, 2.0 mM I-Glutamine, 0.1% FBS). Incubate overnight at 37° C., 5% CO2. • 7. Dilute Compounds/Extracts 1:20 in polypropylene 96 well plates using starvation media. Dilute dimethylsulfoxide 1:20 for use in control wells. • 8. Remove starvation media from 96 well cell culture plates and add 162 μl of fresh starvation media to each well. • 9. Add 18 μl of 1:20 diluted Compound/Extract dilution (from step 7) to each well plus the 1:20 dimethylsulfoxide dilution to the control wells (+/−VEGF), for a final dilution of 1:200 after cell stimulation. Final dimethylsulfoxide is 0.5%. […]

The test system of assay [2] is 3T3/E/H+TGF-a(T) cells. Put plainly: 3T3/E/H+TGF-a(T) cell growth SRB assay. It counts as cell-based. The conditions noted are these: SRB readout. Background: In SRB staining, fixed cells bind dye roughly in proportion to their protein.
Method: The SRB assays may be used to measure the effects of substances or cell growth. The assays are carried out as follows:
Trypsinize cells as usual. Transfer 100 μl of cell suspension to 10 ml of isotone. Count cells with the Coulter Counter. • 2. Dilute cells in growth medium to 60,000 cells/ml. Transfer 100 μl of cells to each well in a 96-well flat bottom plate to give 6000 cells/well. • 3. […] Gently shake plates to allow for uniform attachment of the cells. • 5. Incubate the plates at 37° C. in a 10% CO2 incubator. Day 1: Addition of Compound: • This part of assay is carried out in a laminar flow hood. • 1. In 96 well-round bottom plate, add 125 μl of growth medium to columns 3-11. […] At this dilution, the concentration of DMSO is 0.4% for a 2× solution or 0.2% for 1× solution on the cells. […] Transfer the 2× starting compound solution to quadruplicate wells in column 12 of the 96-well round bottom plate. Do 1:2 serial dilutions across the plate from right to left by transferring 125 μl from column 12 to column 11, column 11 to 10 and so on. Transfer 100 μl of compound dilutions onto 100 μl medium on cells in corresponding wells of 96-well flat bottom plate. Total volume per well should be 200 μl. • 4. For vehicle control, prepare a 2× solution of DMSO at 0.4% DMSO in growth medium. […] Read plates on Dynatech ELISA Plate Reader at 570 nm with reference at 630 nm. […]
In assay [3] the test system is HUV-EC-C cells (VEGF). Put plainly: HUV-EC-C assay, [3H] thymidine incorporation, VEGF. The conditions noted are these: Mitogenesis in endothelial cells. Format: cell-based, human.
Assay [4] relates to HUV-EC-C cells (a-FGF). Briefly: HUV-EC-C assay, [3H] thymidine incorporation, a-FGF. It counts as cell-based, human. The conditions noted are these: Mitogenesis in endothelial cells. As for the experimental part:
The following protocol may also be used to measure the composition's activity: • Day 0 • 1. […] After cells have detached from the flask, add an equal volume of assay medium and transfer to a 50 ml sterile centrifuge tube (Fisher Scientific; catalogue no. 05-539-6). • 2. Wash the cells with about 35 ml assay medium in the 50 ml sterile centrifuge tube by adding the assay medium, centrifuge for 10 minutes at approximately 200×g, aspirate the supernatant, and resuspend with 35 ml D-PBS. Repeat the wash two more times with D-PBS, resuspend the cells in about 1 ml assay medium/15 cm^2 of tissue culture flask. Assay medium consists of F12K medium (Gibco BRL; catalogue no. 21127-014)+0.5% heat-inactivated fetal bovine serum. Count the cells with a Coulter Counter.RTM.v Coulter Electronics, Inc.) and add assay medium to the cells to obtain a concentration of 0.8-1.0×10^5 cells/ml. • 3. Add cells to 96-well flat-bottom plates at 100 μl/well or 0.8-1.0×10^4 cells/well; incubate about 24 h at 37° C., 5% CO2. Day 1 • 1. Make up two-fold drug titrations in separate 96-well plates, generally 50 μM on down to 0 μM. Use the same assay medium as mentioned in day 0, step 2 above. Titrations are made by adding […] of drug at 200 μM (4× the final well concentration) to the top well of a particular plate column. Since the stock drug concentration is usually 20 mM in DMSO, the 200 μM drug concentration contains 2% DMSO. Therefore, diluent made up to 2% DMSO in assay medium (F12K+0.5% fetal bovine serum) is used as diluent for the drug titrations in order to dilute the drug but keep the DMSO concentration constant. Add this diluent to the remaining wells in the column at 60 μl/well. Take 60 μl from the 120 μl of 200 μM drug dilution in the top well of the column and mix with the 60 μl in the second well of the column. Take 60 μl from this well and mix with the 60 μl in the third well of the column, and so on until two-fold titrations are completed. When the next-to-the-last well is mixed, take 60 μl of the 120 μl in this well and discard it. Leave the last well with 60 μl of DMSO/media diluent as a non-drug-containing control. Make 9 columns of titrated drug, enough for triplicate wells each for 1) VEGF (obtained from Pepro Tech Inc., catalogue no. 100-200, 2) endothelial cell growth factor (ECGF) (also known as acidic fibroblast growth factor, or aFGF) (obtained from Boehringer Mannheim Biochemica, catalogue no. 1439 600), and assay media control. ECGF comes as a preparation with sodium heparin. • 2. Transfer 50 μl/well of the drug dilutions to the 96-well assay plates containing the 0.8-1.0×10^4 cells/100 μl/well of the HUV-EC-C cells from day 0 and […] incubate ~2 h at 37° C., 5% CO2. • 3. In triplicate, add 50 μl/well of 80 ng/ml VEGF, 20 ng/ml ECGF, or media control to each drug condition. As with the drugs, the growth factor concentrations are 4× the desired final concentration. Use the assay media from day 0 step 2 to make the concentrations of growth factors. Incubate approximately 24 hours at 37° C., 5% CO2. Each well will have 50 μl drug dilution, 50 μl growth factor or media, and 100 ul cells,=200 ul/well total. Thus the 4× concentrations of drugs and growth factors become 1× once everything has been added to the wells. Day 2 • 1. Add ^3H-thymidine (Amersham; catalogue no. TRK-686) at 1 μCi/well (10 μl/well of 100 μCi/ml solution made up in RPMI media+10% heat-inactivated fetal bovine serum) and incubate about 24 h at 37° C., 5% CO2. • Note: ^3H-thymidine is made up in RPMI media because all of the other applications for which we use the ^3H-thymidine involve experiments done in RPMI. The media difference at this step is probably not significant. RPMI was obtained from Gibco BRL, catalogue no. 11875-051. Day 3 • 1. Freeze plates overnight at −20° C. Day 4 • 1. […]
(In general: Uptake of a labelled nucleoside into DNA is a usual measure of proliferation.)

Assay [5] concerns the target FGFR (Mus musculus, UniProt P16092). Put plainly: FGF ligand BrdU incorporation in 3T3/EGFR cells. It counts as cell-based. Conditions: Mitogenesis in 3T3/EGFR cells.
The target in assay [6] is PDGFR (Homo sapiens, UniProt P09619). Briefly: PDGF-R ELISA.
Method: All cell culture media, glutamine, and fetal bovine serum were purchased from Gibco Life Technologies (Grand Island, N.Y.) unless otherwise specified. […] All cell lines were routinely subcultured twice a week and were negative for mycoplasma as determined by the Mycotect method (Gibco).
For ELISA assays, cells (U1242, obtained from Joseph Schlessinger, NYU) were grown to 80-90% confluency in growth medium (MEM with 10% FBS, NEAA, 1 mM NaPyr and 2 mM GLN) and seeded in 96-well tissue culture plates in 0.5% serum at 25,000 to 30,000 cells per well. […] Lysates were incubated with shaking for 1 hour at room temperature. The plates were washed with TBST four times and then incubated with polyclonal anti-phosphotyrosine antibody at room temperature for 30 minutes. Excess anti-phosphotyrosine antibody was removed by rinsing the plate with TBST four times. Goat anti-rabbit IgG antibody was added to the ELISA plate for 30 min at room temperature followed by rinsing with TBST four more times. […] Absorbance at 410 nm with a reference wavelength of 630 nm was recorded about 15 to 30 min after ABTS addition.
Assay [7] has as its system PDGFR. Put plainly: PDGF-induced BrdU incorporation assay in 3T3/EGFR cells. It counts as cell-based. Conditions: Mitogenesis in 3T3/EGFR cells, read-out: PDGFR PDGF Ligand IC50.
Method: Protocol • (1) 3T3 engineered cell line: 3T3/EGFRc7. • (2) Cells are seeded at 8000 cells/well in DMEM, 10% CS, 2 mM Gin in a 96 well plate. […] The negative control wells receive serum free DMEM with 0.1% BSA only; the positive control cells receive the ligand (PDGF) but no test compound. […] FixDenat solution is added (50 μl/well) and the plates are incubated at room temperature for 45 minutes on a plate shaker. • (7) The FixDenat solution is thoroughly removed by decanting and tapping the inverted plate on a paper towel. Milk is added (5% dehydrated milk in PBS, 200 μl/well) as a blocking solution and the plate is incubated for 30 minutes at room temperature on a plate shaker. • (8) The blocking solution is removed by decanting and the wells are washed once with PBS. Anti-BrdU-POD solution (1:100 dilution in PBS, 1% BSA) is added (100 μl/well) and the plate is incubated for 90 minutes at room temperature on a plate shaker. • (9) The antibody conjugate is thoroughly removed by decanting and rinsing the wells 5 times with PBS, and the plate is dried by inverting and tapping on a paper towel. • (10) TMB substrate solution is added (100 μl/well) and incubated for 20 minutes at room temperature on a plate shaker until color development is sufficient for photometric detection. • (11) The absorbance of the samples is measured at 410 nm (in “dual wavelength” mode with a filter reading at 490 nm, as a reference wavelength) on a Dynatech ELISA plate reader.
For assay [8], the system named is 3T3/PDGFR+PDGF(T) cells. Briefly: 3T3/PDGF-βR/PDGF-BB(T) cell growth SRB assay. Conditions: tumor-derived, SRB readout. Format: cell-based. How it is done: Cell Line and Growth Medium:
• 3T3/PDGF-βR/PDGF-BB(T) (NIH 3T3 clone 7 cells expressing PDGFβ-receptor and PDGF-BB, from tumors resected from athymic mice) 2% calf serum/DMEM+2 mM glutamine Protocol: Day 0: Cell Plating: • This part of assay is carried out in a laminar flow hood. • 1. Trypsinize cells as usual. Transfer 200 μl of cell suspension to 10 ml of isotone. Count cells on the Coulter Counter. • 2. Dilute cells in growth medium to 60,000 cells/ml. Transfer 100 μl of cells to each well in a 96-well flat bottom plate to give 6000 cells/well. • 3. Allow half of plate (4 rows) for each compound and quadruplicate wells for each compound concentration, a set of 4 wells for medium control and 4 wells for DMSO control. • 4. Gently shake plates to allow for uniform attachment of the cells to the plate. • 5. Incubate the plates at 37° C. in a 10% CO2 incubator. • Day 1: Addition of Compound: same as for Assay 1. • Day 5: Development of Assay: same as for Assay 1.
3T3/E/H+TGF-α(T): NIH 3T3 cells expressing EGFR/HER2 chimera and TGF-α, tumor-derived 3T3/EGFR+TGF-α(T): NIH 3T3 cells expressing EGFR and TGF-α, tumor-derived 3T3/PDGFR+PDGF(T): NIH 3T3 cells expressing PDGF-βR and PDGF-ββ, tumor-derived SMC: human smooth muscle cells from Clonetics

Chain of PDGFR (Homo sapiens, UniProt P09619) (P09619 33-1106): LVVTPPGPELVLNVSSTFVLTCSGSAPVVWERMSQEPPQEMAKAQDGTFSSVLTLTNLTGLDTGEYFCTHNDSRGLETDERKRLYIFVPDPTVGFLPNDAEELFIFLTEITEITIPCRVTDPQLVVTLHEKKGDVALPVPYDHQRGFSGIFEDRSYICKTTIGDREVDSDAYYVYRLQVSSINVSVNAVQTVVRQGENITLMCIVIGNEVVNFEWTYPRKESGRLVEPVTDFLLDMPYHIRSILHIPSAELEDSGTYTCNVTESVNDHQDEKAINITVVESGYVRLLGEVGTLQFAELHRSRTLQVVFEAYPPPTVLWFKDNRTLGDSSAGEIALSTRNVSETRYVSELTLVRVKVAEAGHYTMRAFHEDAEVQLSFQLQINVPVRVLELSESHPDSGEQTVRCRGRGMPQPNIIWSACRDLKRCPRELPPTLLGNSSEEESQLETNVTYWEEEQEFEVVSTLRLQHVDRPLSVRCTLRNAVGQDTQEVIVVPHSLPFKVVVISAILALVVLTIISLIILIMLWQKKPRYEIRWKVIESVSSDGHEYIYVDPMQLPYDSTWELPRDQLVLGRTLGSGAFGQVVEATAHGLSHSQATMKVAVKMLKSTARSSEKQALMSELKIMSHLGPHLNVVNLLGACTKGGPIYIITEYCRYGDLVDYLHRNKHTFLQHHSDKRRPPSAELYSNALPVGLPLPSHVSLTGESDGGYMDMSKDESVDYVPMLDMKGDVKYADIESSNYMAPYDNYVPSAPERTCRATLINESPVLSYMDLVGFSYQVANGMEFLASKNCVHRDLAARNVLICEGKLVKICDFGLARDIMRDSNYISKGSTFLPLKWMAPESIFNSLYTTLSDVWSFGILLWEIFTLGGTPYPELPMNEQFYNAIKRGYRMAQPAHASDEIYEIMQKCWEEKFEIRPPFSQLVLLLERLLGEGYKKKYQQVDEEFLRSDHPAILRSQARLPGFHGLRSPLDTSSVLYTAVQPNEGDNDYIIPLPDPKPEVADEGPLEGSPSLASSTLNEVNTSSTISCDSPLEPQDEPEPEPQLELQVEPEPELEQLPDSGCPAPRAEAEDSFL
Chain of FGFR (P16092 22-822, change not shown): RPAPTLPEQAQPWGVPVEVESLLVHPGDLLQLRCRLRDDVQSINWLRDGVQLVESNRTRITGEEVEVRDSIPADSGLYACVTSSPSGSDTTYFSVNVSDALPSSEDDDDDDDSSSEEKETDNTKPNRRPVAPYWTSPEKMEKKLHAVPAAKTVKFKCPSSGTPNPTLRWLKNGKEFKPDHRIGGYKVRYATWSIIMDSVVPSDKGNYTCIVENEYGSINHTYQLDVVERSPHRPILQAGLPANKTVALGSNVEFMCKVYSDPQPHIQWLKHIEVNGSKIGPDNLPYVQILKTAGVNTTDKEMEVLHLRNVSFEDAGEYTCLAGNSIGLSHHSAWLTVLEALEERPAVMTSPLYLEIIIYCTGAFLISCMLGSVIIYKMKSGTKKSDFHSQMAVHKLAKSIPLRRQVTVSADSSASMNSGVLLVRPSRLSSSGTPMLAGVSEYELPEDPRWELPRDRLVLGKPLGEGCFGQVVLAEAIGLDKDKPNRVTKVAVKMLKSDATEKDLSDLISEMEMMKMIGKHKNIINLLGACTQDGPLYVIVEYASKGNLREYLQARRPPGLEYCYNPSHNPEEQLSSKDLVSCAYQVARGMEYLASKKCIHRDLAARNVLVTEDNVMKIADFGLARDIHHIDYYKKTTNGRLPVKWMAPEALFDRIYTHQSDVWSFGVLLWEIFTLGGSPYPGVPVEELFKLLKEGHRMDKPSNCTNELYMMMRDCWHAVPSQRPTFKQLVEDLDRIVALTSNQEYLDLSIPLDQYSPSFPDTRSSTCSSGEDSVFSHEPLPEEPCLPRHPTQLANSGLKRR
T1 sequence (P35918 20-1345): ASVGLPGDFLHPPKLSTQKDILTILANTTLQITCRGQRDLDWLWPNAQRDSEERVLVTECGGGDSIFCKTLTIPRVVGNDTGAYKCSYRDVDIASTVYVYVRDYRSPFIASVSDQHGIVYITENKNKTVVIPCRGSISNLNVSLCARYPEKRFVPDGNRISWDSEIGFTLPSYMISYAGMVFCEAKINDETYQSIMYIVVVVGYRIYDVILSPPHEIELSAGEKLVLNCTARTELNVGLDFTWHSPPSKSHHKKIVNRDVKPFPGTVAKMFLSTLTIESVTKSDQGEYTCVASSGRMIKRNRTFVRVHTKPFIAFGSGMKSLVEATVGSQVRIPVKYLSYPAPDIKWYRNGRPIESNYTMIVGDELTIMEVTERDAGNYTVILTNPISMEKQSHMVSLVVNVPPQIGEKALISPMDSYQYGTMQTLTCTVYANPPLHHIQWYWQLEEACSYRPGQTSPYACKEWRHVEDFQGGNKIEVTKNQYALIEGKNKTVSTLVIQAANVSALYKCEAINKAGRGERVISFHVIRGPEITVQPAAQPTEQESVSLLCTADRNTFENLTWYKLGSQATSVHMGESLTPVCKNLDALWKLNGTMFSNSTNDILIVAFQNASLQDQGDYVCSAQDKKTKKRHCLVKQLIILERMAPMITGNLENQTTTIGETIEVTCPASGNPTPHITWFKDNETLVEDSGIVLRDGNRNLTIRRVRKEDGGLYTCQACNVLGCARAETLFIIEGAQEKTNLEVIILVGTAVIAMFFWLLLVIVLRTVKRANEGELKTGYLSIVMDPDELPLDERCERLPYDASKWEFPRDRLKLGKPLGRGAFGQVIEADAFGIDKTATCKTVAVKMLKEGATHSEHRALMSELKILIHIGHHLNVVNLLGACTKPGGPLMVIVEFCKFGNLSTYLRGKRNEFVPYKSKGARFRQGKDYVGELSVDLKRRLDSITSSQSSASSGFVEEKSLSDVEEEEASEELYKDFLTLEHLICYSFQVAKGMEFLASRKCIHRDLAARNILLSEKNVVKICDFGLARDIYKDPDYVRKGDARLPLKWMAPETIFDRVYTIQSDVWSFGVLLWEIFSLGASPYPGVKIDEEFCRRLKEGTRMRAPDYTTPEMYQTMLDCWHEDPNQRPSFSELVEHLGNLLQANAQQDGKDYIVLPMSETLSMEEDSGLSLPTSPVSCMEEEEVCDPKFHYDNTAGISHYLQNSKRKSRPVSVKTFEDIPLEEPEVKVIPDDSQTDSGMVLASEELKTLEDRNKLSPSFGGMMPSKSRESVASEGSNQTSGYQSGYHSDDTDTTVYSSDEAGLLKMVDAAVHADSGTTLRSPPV

A word on the IC50: it is the concentration that inhibits the measured activity by half. On to “3-[(2-Sulphonylfuran-5-yl)methylene]-2-indolinone sodium salt [SU5428]”, for which the IC50 in assay [1] was 8.6 µM.

In assay [2], `CN(C)c1ccc(C=C2C(=O)Nc3ccccc32)cc1` [SU4312, 3-(4-Dimethylaminobenzylidenyl)-2-indolinone] returned a concentration for half-maximal inhibition (IC50) of 36 µM.

Consider `COc1ccc(OC)c(C=C2C(=O)Nc3ccccc32)c1` [SU4793, 3-(2,5-Dimethoxybenzylidenyl)-2-indolinone], for which the IC50 in assay [3] came out at 6.6 µM; in assay [4] it was 3.4 µM.

For `COc1cccc(C=C2C(=O)Nc3ccccc32)c1OC` [SU4794, 3-(2,3-dimethoxybenzylidenyl)-2-indolinone], the results for the IC50 in assay [3] and in assay [4] were 4.8 µM and 35.7 µM, respectively.

Consider `CC(=O)Nc1ccc(C=C2C(=O)Nc3ccccc32)cc1` [SU4799, 3-(4-acetamidobenzylidenyl)-2-indolinone], for which the 50% inhibitory concentration (IC50) in assay [3] came out at 19.9 µM.

For the compound `O=C1Nc2ccccc2C1=Cc1ccc(O)cc1Cl` [SU4932, 3-(2-chloro-4-hydroxybenzylidenyl)-2-indolinone], the IC50 is 2.5 µM in assay [3] and 45.2 µM in assay [4].

In the case of `CN(C)c1ccc(C=C2C(=O)N(C)c3ccccc32)cc1` [SU4952, 3-(4-Dimethylaminobenzylidenyl)-1-methyl-2-indolinone], the values for the IC50 in assay [3] and in assay [4] were 25.6 µM and 19.3 µM, respectively.

As for `CN1C(=O)C(=Cc2ccc(Br)cc2)c2ccccc21` [SU4956, 3-(4-Bromobenzylidenyl)-1-methyl-2-indolinone], the figures for the IC50 in assay [3] and in assay [4] were 8 µM and 13 µM, respectively.

With `CN(C)c1ccc(C=C2C(=O)Nc3ccc(Cl)cc32)cc1` [SU4967, 5-Chloro-3-(4-dimethylaminobenzylidenyl)-2-indolinone], the half-maximal inhibitory concentration (IC50) in assay [5] is 4.9 µM; in assay [6], 7.9 µM; in assay [7], 9 µM.

Consider `O=C1Nc2ccccc2C1=Cc1ccc(N2CCOCC2)cc1` [SU4981, 3-[4-(Morpholin-4-yl)benzylidenyl]-2-indolinone], for which the IC50 was determined as 10 µM in assay [5], 33.1 µM in assay [6] and 3 µM in assay [7].

With `CN1C(=O)C(=Cc2ccc(N3CCOCC3)cc2)c2ccccc21` [SU4982, 1-Methyl-3-[4-(morpholin-4-yl)benzylidenyl]-2-indolinone], the figures for the concentration for half-maximal inhibition (IC50) in assay [3] and in assay [4] were 46.1 µM and 27.3 µM, respectively.

As for `O=CN1CCN(c2ccc(C=C3C(=O)Nc4ccccc43)cc2)CC1` [SU4984, 3-[4-(4-Formylpiperazin-1-yl)benzylidenyl]-2-indolinone], the IC50 was determined as 22.2 µM in assay [8] and 5.8 µM in assay [6].

Consider `Cc1c(CCC(=O)O)c[nH]c1C=C1C(=O)Nc2ccccc21` [SU5402, 3-[(3-(2-carboxyethyl)-4-methylpyrrol-5-yl)methylene]-2-indolinone], for which the IC50 in assay [5] turned out to be 40 µM; in assay [7], 50 µM.

As to `Cc1cc[nH]c1C=C1C(=O)Nc2ccccc21` [SU5404, 3-[(3-Methylpyrrol-2-yl)methylene]-2-indolinone], the concentration for half-maximal inhibition (IC50) was found to be 25 µM in assay [5], 17 µM in assay [6] and 3 µM in assay [7].

Turning to `Cc1c[nH]c(C=C2C(=O)Nc3ccccc32)c1C` [SU5406, 3-[(3,4-Dimethylpyrrol-2-yl)methylene]-2-indolinone], in assay [7], the IC50 is 5.2 µM.

Take `COC(=O)CCc1c(C)c[nH]c1C=C1C(=O)Nc2ccccc21` [SU5407, 3-{[4-(2-methoxycarbonylethyl)-3-methylpyrrol-5-yl]methylene}-2-indolinone]: in assay [6], 53.7 µM corresponded to half-maximal inhibition (IC50).

As for `CCc1ccc(C=C2C(=O)Nc3ccccc32)s1` [SU5451, 3-[(2-Ethylthien-5-yl)methylene]-2-indolinone], the IC50 in assay [5] stood at 16 µM; in assay [7] it was 30 µM.

Compound `CCc1c(C=C2C(=O)Nc3ccccc32)[nH]c(C)c1C` [SU5453, 3-[(4,5-Dimethyl-3-ethylpyrrol-2-yl)methylene]-2-indolinone] yielded an IC50 in assay [6] of 65.5 µM.

`CCOC(=O)CCc1c(C=C2C(=O)Nc3ccccc32)[nH]c(C(=O)OCC)c1CC(=O)OCC` [SU5465, 3-[(5-Ethoxycarbonyl-3-ethoxycarbonylethyl-4-ethoxylcarbonylmethylpyrrol-2-yl)methylene]-2-indolinone]: the IC50 stood at 25 µM in assay [5] and 40 µM in assay [7].

On to `O=C1Nc2ccccc2C1=Cc1ccc(N2CCCC2)cc1` [SU5466, 3-[4-(Pyrrolidin-1-yl)benzylidenyl]-2-indolinone], for which the IC50 amounted to 15 µM in assay [5], 86 µM in assay [6] and 18 µM in assay [7].

Take `Cc1cnc(C=C2C(=O)Nc3ccccc32)[nH]1` [SU5468, 3-[(5-Methylimidazol-2-yl)methylene]-2-indolinone]: the figures for the IC50 in assay [6] and in assay [7] were 55.9 µM and 8 µM, respectively.

As for `Cc1cnc(C=C2C(=O)Nc3ccccc32)s1` [SU5469, 3-[(5-Methylthiazol-2-yl)methylene]-2-indolinone], the IC50 in assay [5] was 15 µM; in assay [7] it was 4 µM.

For `O=C1Nc2ccccc2C1=Cc1c[nH]cn1` [SU5473, 3-[(Imidazol-4-yl)methylene]-2-indolinone], the IC50 came to 1.2 µM in assay [3] (Homo sapiens, HUVEC); 50 µM in assay [5]; 14.1 µM in assay [4] (Homo sapiens, HUVEC); 14.2 µM in assay [6]; 4 µM in assay [7].

Consider `O=C1Nc2ccccc2C1=Cc1c(Br)cnn1Cc1ccc(Cl)cc1` [SU5475, 3-[(4-Bromo-1-(4-chlorobenzyl)pyrazol-5-yl)methylene]-2-indolinone], for which the IC50 in assay [5] was found to be 9 µM; in assay [7], 6.5 µM.
